Data on 1 compound can be found in patent US12466812B2, “Pyridinyltriazine derivative having protein kinase inhibitory activity, and pharmaceutical composition for preventing, ameliorating, or treating cancer comprising same” (KOREA INSTITUTE OF SCIENCE AND TECHNOLOGY, priority 2019, dated 2025).

One assay deals with TAO2 (Homo sapiens, UniProt Q9UL54). In words: Kinase panel biochemical assay. The following applies: single concentration of 1 μM; panel of 369 kinases; read-out: kinase activity inhibited (%), TAO2. The procedure: (§1) In order to measure the inhibitory activity (%) against protein kinases of the compounds of the present invention, biochemical assays were performed on a full kinase panel composed of 369 kinases.
Chain of TAO2 (Q9UL54 whole entry): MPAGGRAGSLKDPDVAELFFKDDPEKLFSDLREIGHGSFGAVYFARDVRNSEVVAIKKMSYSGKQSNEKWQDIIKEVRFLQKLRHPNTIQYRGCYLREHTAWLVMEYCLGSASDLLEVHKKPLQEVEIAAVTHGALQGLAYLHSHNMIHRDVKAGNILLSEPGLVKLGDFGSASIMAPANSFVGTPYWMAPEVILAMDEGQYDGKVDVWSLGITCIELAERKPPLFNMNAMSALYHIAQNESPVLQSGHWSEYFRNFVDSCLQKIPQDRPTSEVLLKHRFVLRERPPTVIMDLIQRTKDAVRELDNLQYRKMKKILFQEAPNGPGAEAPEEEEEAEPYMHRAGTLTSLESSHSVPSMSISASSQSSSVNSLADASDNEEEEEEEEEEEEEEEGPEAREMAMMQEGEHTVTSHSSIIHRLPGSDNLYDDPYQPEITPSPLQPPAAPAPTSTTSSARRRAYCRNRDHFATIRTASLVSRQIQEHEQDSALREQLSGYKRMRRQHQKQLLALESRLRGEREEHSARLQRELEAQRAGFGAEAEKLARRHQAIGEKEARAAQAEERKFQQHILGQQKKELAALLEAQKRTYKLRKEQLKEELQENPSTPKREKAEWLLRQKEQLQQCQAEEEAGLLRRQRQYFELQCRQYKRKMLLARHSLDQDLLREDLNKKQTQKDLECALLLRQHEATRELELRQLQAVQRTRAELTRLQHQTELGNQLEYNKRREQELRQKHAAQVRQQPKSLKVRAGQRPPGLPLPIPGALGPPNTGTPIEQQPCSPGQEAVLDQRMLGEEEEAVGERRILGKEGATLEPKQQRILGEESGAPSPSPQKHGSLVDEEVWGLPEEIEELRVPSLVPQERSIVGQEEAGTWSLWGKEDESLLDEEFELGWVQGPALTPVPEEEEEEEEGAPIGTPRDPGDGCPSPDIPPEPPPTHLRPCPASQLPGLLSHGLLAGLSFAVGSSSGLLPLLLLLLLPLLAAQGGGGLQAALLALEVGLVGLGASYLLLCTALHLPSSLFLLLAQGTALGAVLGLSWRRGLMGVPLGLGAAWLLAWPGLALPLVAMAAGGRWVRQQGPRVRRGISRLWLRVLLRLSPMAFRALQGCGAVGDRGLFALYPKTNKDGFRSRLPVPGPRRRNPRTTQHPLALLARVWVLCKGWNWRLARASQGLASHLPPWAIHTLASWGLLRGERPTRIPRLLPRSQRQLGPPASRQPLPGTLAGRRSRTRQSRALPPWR

The next assay deals with FMS (Homo sapiens, UniProt P07333). In words: Kinase panel biochemical assay. The following applies: single concentration of 1 μM; panel of 369 kinases; read-out: kinase activity inhibited (%), FMS. As to the method: as §1
The target of another assay is DDR1 (Homo sapiens, UniProt Q08345). In words: Kinase panel biochemical assay. The following applies: single concentration of 1 μM; panel of 369 kinases; read-out: kinase activity inhibited (%), DDR1. The procedure:
as §1

Another assay addresses MAK (Homo sapiens, UniProt P20794). Description: Kinase panel biochemical assay. The following applies: single concentration of 1 μM; panel of 369 kinases; read-out: kinase activity inhibited (%), MAK. The procedure:
as §1

The test system of assay [1] is UMUC3, bladder cancer cell line overexpressing FGFR1 (xenograft). In words: In-vivo efficacy in animal model transplanted with bladder cancer cell line. The following applies: UMUC3 xenograft in BALB/C nude mice, oral 20 mpk once a day, compared to control drug BGJ398. From the text:
Specifically, 6-7 week old BALB/C nude mice xenografted with UMUC3, which was a bladder cancer cell line overexpressing FGFR1, were used as an animal model. BGJ398 (manufactured by Novartis), a known FGFR inhibitor, was used as a control drug. A mixed solution (pH=4) of 5% N-methylpyrrolidinone (NMP), 6% Solutol, 20% polyethylene glycol (PEG400), and 69′% distilled water was used as a vehicle. At this time, the drug was orally administered at a concentration of 20 mpk (mg/kg) once a day.

A further assay concerns the target FGFR2 mutant (N549H) (Homo sapiens, UniProt P21802, N549H). In words: Pan-FGFR mutant enzymatic activity. It is filed as biochemical. The following applies: mutant enzyme. The procedure: (§2) The inhibitory activity against pan-FGFR mutants of the compounds synthesized in Examples 1, 8, 13, 22, and 24 was measured, the inhibitory activity on each of enzymatic activity and cellular activity was evaluated, and the results are shown in Tables 3 and 4 below.

The target of another assay is FGFR3 mutant (V555M) (Homo sapiens, UniProt P22607, V555M). In words: Pan-FGFR mutant enzymatic activity. It counts as biochemical. The following applies: mutant enzyme. The procedure: as §2
Chain of FGFR3 mutant (V555M) (P22607 23-806 V555M): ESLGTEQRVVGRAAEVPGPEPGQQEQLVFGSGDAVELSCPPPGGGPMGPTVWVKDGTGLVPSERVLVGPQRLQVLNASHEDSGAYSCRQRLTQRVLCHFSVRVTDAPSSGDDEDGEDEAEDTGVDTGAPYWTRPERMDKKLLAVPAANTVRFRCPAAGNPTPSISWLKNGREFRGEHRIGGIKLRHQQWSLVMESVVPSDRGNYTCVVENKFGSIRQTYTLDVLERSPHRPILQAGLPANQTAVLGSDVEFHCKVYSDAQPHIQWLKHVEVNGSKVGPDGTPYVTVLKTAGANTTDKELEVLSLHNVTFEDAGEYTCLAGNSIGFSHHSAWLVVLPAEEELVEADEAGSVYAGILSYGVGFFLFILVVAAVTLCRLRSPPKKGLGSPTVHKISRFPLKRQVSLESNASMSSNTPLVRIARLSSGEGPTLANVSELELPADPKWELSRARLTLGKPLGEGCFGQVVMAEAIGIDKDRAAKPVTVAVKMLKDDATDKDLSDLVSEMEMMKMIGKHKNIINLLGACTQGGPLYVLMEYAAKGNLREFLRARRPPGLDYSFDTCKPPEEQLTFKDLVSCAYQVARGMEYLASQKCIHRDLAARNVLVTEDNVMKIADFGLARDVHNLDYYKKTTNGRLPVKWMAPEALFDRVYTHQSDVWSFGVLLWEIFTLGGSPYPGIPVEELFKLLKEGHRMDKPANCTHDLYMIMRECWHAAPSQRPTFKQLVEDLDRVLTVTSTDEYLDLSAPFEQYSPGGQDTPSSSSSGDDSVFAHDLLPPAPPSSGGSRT
For a further assay, the target named is FGFR3 mutant (K650M) (Homo sapiens, UniProt P22607, K650M). Description: Pan-FGFR mutant enzymatic activity. It is filed as biochemical. The following applies: mutant enzyme. As to the method:
as §2

The target of another assay is FGFR3 mutant (K650E) (Homo sapiens, UniProt P22607, K650E). In words: Pan-FGFR mutant enzymatic activity. It counts as biochemical. The following applies: mutant enzyme. As to the method: as §2
Chain of FGFR3 mutant (K650E) (P22607 23-806 K650E): as the sequence (P22607 23-806 V555M) above, with M533V, K628E counted along it
For the next assay, the target named is FGFR2 mutant (V564F) (Homo sapiens, UniProt P21802, V564F). Description: Pan-FGFR mutant enzymatic activity. It is filed as biochemical. The following applies: mutant enzyme. The procedure: as §2
Chain of FGFR2 mutant (V564F) (P21802 22-821 V564F): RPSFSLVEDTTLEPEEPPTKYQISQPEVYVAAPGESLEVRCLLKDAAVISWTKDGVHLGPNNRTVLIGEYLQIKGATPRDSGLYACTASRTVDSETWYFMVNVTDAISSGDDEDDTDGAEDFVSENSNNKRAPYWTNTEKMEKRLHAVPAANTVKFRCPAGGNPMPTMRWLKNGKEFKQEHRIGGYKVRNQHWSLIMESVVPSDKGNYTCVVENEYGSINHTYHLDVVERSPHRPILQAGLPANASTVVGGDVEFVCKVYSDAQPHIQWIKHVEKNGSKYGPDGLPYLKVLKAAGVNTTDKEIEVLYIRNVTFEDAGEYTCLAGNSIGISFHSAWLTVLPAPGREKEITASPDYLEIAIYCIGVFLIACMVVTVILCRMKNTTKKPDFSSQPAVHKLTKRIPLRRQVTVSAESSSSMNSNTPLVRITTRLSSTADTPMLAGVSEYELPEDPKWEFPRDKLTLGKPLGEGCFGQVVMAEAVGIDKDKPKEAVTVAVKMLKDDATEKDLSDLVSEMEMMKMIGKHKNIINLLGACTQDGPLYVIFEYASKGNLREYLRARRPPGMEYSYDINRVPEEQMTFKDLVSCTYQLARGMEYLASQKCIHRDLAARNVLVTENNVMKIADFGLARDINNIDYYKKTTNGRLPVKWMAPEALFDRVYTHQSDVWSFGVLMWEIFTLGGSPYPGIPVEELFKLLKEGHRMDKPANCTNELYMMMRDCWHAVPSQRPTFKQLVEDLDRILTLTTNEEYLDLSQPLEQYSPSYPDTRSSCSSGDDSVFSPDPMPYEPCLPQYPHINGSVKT

A value given as a limit tells only on which side of the number the result lay.

Chain of MAK (P20794 whole entry): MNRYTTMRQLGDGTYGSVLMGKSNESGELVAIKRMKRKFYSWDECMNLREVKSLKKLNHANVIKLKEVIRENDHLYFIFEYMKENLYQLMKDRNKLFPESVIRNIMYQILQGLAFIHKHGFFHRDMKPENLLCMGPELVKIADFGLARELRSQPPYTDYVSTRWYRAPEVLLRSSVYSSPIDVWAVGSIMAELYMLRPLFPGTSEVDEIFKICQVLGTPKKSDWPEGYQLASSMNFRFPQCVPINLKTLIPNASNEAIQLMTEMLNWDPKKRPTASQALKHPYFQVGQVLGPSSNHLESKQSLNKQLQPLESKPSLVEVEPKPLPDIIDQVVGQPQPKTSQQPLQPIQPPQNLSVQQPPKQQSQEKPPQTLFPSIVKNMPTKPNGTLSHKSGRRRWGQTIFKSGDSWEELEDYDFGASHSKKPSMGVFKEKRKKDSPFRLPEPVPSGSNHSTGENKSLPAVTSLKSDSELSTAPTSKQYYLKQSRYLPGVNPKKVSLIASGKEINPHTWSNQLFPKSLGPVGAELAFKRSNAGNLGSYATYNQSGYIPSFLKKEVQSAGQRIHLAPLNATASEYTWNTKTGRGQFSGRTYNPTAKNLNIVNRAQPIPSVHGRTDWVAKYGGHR
Chain of FGFR2 mutant (N549H) (P21802 22-821 N549H): as the sequence (P21802 22-821 V564F) above, with N528H, F543V counted along it
Chain of DDR1 (Q08345 19-913): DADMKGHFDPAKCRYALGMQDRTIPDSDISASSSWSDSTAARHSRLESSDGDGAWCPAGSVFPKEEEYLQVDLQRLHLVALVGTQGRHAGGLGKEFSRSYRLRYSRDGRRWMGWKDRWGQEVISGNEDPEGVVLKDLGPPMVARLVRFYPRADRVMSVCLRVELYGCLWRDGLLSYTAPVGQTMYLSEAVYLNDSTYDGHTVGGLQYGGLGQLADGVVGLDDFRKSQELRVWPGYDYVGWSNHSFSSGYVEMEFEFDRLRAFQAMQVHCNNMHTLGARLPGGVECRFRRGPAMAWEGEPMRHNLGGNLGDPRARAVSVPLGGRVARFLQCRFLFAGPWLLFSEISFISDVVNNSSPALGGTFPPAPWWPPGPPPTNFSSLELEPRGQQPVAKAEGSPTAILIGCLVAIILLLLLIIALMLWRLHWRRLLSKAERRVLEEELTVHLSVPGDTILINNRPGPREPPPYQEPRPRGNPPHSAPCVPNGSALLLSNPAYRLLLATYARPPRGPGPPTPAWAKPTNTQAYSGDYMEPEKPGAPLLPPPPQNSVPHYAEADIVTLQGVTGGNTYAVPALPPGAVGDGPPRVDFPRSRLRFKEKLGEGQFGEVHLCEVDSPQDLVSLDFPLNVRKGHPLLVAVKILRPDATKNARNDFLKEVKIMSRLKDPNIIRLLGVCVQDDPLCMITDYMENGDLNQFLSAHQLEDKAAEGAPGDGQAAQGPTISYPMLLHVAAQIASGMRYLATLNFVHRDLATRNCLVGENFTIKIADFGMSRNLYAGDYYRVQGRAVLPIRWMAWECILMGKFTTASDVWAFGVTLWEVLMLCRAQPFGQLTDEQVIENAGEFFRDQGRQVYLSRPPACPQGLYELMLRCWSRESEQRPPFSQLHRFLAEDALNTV
Chain of FGFR3 mutant (K650M) (P22607 23-806 K650M): as the sequence (P22607 23-806 V555M) above, with M533V, K628M counted along it

As usually defined, the IC50 is the midpoint of a concentration-inhibition curve. `CCN1CCN(c2ccc(Nc3ncnc(-c4cccnc4Nc4c(Cl)c(OC)cc(OC)c4Cl)n3)cc2)CC1` [Example 1]: the inhibition at 1 µM on TAO2, at FMS, on DDR1 and at MAK was at least 90% throughout. The “tumor volume reduction effect” value in assay [1] is given as “excellent tumor volume reduction effect”. Also, the IC50 was below 100 nM at FGFR2 mutant (N549H); 100 to 1000 nM against FGFR3 mutant (V555M); below 100 nM against FGFR3 mutant (K650M); below 100 nM on FGFR3 mutant (K650E); 100 to 1000 nM against FGFR2 mutant (V564F).
